Laboratory results from patent US20070275046A1, “Noval Surfactants and Applications Thereof” (TS PHARMA, priority 2003, published 2007).

Legend:
Type in all cases: physicochemical
[1] = Mechanical stability over time of the particles (particle size on storage)
Method: (§1) The size and the mechanical stability over time of the particles obtained in the solution were measured after filtration by dynamic light diffraction (High Performance Particle Sizer, Malvern). The nature of the particles obtained was studied by transmission electron microscopy after negative staining of the sample or after freeze-fracture (FIG. 4).
(§2) The size and the mechanical stability over time of the particles obtained in the solution were measured after dynamic light diffraction filtration (High Performance Particle Sizer, Malvern). The nature of the particles obtained was studied by transmission electron microscopy after negative staining of the sample or after freeze-fracture. The critical aggregation concentration of these surfactants was determined by tensiometry or by spectrofluorimetry using the fluorescent label method. Furthermore, the Wilhelmy tensiometry technique made it possible to determine the maximum surface tensions and the area of the polar head at the water-air interface (FIG. 8). […] In order to cause this value to decrease or increase, it is necessary to, respectively, increase or decrease the length of the hydrocarbon-based chains. The phase transition temperature of these surfactants was determined by polarization spectrofluorimetry and by light scattering (FIG. 9).

[2] = Shape and size of tubular vesicles from transmission electron micrographs (negative staining, freeze-fracture)
Method: as §1
The freeze-fracture analyses confirmed the formation of these tubular vesicles and their morphological characteristics, namely the presence of an inner aqueous cavity isolated from the outside medium (FIG. 5).
The freeze-fracture analyses confirmed the formation of these tubular vesicles and their morphological characteristics, i.e. the presence of an inner aqueous cavity isolated from the outside medium.

[3] = Particle size by dynamic light diffraction / photon correlation spectroscopy (Malvern HPPS)
Method: as §1
The size and the mechanical stability over time of the particles obtained in the solution were measured after dynamic light diffraction filtration (High Performance Particle Sizer, Malvern). The nature of the particles obtained was studied by transmission electron microscopy after negative staining of the sample or after freeze-fracture. The critical aggregation concentration of these surfactants was determined by tensiometry or by spectrofluorimetry using the fluorescent label method. […] The phase transition temperature of these surfactants was determined by polarization spectrofluorimetry and by light scattering (FIG. 9).
The size distribution of the particles was measured by photon correlation spectroscopy of light of samples diluted in water using a Malvern HPPS/NIBS device equipped with a 3 mW He/Ne laser and a 288-channel correlator equipped with an avalanche of photodiodes. […]

[4] = Phase transition temperature by polarization spectrofluorimetry (DPH probe) and light scattering; conditions: polarization of fluorescent probe DPH
Method: as §2
With R=C17H35 (derivative A1). The phase transition temperature was measured via detection of the polarization of a fluorescent probe, DPH, by spectrofluorimetry: Tm=54° C.

[5] = Release kinetics of encapsulated carboxyfluorescein by spectrofluorimetry; conditions: compared with encapsulation in egg yolk phosphatidylcholine; 25° C., Tris buffer pH 7.4, 4 h
Method: The encapsulation capacity of the various compounds is determined by spectrofluorimetry using a fluorescent probe: 5 (6)-carboxyfluorescein. The release of this fluorescent label from the vesicles prepared according to standardized methods is measured.
This study requires the preparation of a Tris buffer (15 mM and 150 mM NaCl) at pH 7.4, and also of a 120 mM carboxyfluorescein solution, also at pH 7.4.
The compounds studied are weighed out (2.5 mg/ml) and are dissolved in a minimum amount of methanol. The solvent is evaporated off under reduced pressure in a rotary evaporator and the film thus obtained is dried with a stream of nitrogen. […]
The fluorescence measurements were carried out using a Jobin-Yvon spectrofluorimeter (spectrofluoromax 2), equipped with a 150 W xenon lamp. […] The samples were analyzed at an excitation wavelength of 480 nm, and an emission wavelength of 530 nm for 4 hours. […]
For each measurement, the initial fluorescence intensity (F0) is determined 30 seconds after the column filtration. The release is studied over a period of 4 h and the fluorescence intensity (Ft) is measured at regular intervals. The maximum fluorescence intensity (Fmax), which corresponds to 100% release, is obtained after tubular vesicle lysis obtained by the addition of Triton X100 (10% v/v). […]

| average cross section of the tubular vesicles [2] | average length of the tubular vesicles [2] | mean hydrodynamic diameter of the tubular vesicles ([3]; tubular vesicles from lipid dispersed in water at 2.5 mg.ml^-1, measured by light diffraction) | IP ([3]; tubular vesicles, light diffraction, printed with the mean hydrodynamic diameter) | phase transition temperature Tm [4] | release kinetics of encapsulated carboxyfluorescein [5] | mechanical stability of the liposomes formed in water ([1]; liposomes with conventional structures) | SMILES | change in particle size on storage ([1]; aqueous dispersion of tubular vesicles) |
| --- | --- | --- | --- | --- | --- | --- | --- | --- |
| 38 nm | 247 nm | 132 nm | 0.35 | 54 °C | slower release kinetics |  | CCCCCCCCCCCCCCCCCNC(=O)OCC(CNC(=O)CCSCCC(=O)NC(CO)(CO)CO)OC(=O)NCCCCCCCCCCCCCCCCC (centres unmarked) [A1] | no change in particle size is observed after one year of storage |
|  |  |  |  |  |  | only a few hours | CCCCCCCCCCCCCCCCCC(=O)OCC(CNC(=O)CCSCCC(=O)NC(CO)(CO)CO)OC(=O)CCCCCCCCCCCCCCCCC (centres unmarked) [B, reference compound] |  |
